Experimental data as given in article PMC11079024, “Identification of a family of species-selective complex I inhibitors as potential anthelmintics” (Nature Communications, 2024).
Values joined by “and” are separate entries in the source; they are usually repeats but may differ in a detail not shown here. Equal values may be shown once. Read-outs that look alike come from different tables or passages of the source.

Target: C. elegans (N2) complex I (NADH:ubiquinone oxidoreductase) (Caenorhabditis elegans, UniProt P24887+Q93873+Q94360)
Sequence (Q94360 17-199): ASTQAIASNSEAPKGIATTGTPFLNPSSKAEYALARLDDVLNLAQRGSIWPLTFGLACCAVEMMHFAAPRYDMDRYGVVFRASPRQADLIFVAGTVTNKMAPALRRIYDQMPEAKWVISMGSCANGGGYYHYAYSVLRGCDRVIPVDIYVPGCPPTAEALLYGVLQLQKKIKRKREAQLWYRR
Sequence (P24887 whole entry): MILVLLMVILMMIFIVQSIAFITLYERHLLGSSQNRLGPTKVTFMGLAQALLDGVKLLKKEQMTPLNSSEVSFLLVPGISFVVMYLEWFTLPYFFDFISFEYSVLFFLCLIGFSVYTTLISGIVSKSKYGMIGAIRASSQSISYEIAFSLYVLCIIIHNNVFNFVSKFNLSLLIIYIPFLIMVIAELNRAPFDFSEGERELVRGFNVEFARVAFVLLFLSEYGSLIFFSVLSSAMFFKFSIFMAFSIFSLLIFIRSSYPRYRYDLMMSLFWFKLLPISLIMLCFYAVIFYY
Sequence (Q93873 31-482): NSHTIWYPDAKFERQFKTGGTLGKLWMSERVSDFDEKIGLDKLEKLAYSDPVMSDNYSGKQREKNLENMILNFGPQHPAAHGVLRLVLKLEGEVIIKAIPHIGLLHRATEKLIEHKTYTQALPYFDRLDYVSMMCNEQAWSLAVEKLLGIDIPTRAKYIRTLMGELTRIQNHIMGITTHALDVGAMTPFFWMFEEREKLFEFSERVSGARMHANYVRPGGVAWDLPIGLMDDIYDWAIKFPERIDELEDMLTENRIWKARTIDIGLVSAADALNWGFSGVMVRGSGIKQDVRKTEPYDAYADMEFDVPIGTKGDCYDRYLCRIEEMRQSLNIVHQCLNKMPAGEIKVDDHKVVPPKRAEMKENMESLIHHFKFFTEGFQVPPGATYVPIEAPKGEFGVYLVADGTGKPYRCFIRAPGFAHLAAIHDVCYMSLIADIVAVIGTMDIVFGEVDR
Test: biochemical
Format: biochemical
Method in brief: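 Mitochondria, 0.2 mg/mL protein, freeze-thawed three times, assayed in 25 mM KPi pH 7.5 with BSA, 80 μM NADH, 60 μM decylubiquinone, 160 μM DCIP, antimycin A and KCN. Rate from initial linear slope of A600 over 15 min. % of solvent control.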

COC(=O)Nc1nc2ccc(Sc3ccccc3)cc2[nH]1 [fenbendazole, reference compound]
remaining activity at 0.125 µM (0.125 µM, wild-type C. elegans mitochondria, mean of replicates, read-out: percent (%) in vitro complex I activity relative to solvent control): 103%
percent (%) in vitro complex I activity relative to solvent control (0.125 µM, wild-type C. elegans mitochondria, single replicate): 106.082% and 99.397%
remaining activity at 0.125 µM (0.125 µM, wild-type C. elegans mitochondria, single replicate, read-out: percent (%) in vitro complex I activity relative to solvent control): 102%
remaining activity at 0.313 µM (0.313 µM, wild-type C. elegans mitochondria, mean of replicates, read-out: percent (%) in vitro complex I activity relative to solvent control): 101%
percent (%) in vitro complex I activity relative to solvent control (0.313 µM, wild-type C. elegans mitochondria, single replicate): 105.067% and 102.773%
remaining activity at 0.313 µM (0.313 µM, wild-type C. elegans mitochondria, single replicate, read-out: percent (%) in vitro complex I activity relative to solvent control): 101%
remaining activity at 0.625 µM (0.625 µM, wild-type C. elegans mitochondria, mean of replicates, read-out: percent (%) in vitro complex I activity relative to solvent control): 101%
percent (%) in vitro complex I activity relative to solvent control (0.625 µM, wild-type C. elegans mitochondria, single replicate): 108.826% and 84.037% and 107.828% and 101.922%
remaining activity at 1.5 µM (1.5 µM, wild-type C. elegans mitochondria, mean of replicates, read-out: percent (%) in vitro complex I activity relative to solvent control): 101%
percent (%) in vitro complex I activity relative to solvent control (1.5 µM, wild-type C. elegans mitochondria, single replicate): 107.818% and 102.911% and 106.921% and 84.834%
remaining activity at 3 µM (3 µM, wild-type C. elegans mitochondria, mean of replicates, read-out: percent (%) in vitro complex I activity relative to solvent control): 108%
percent (%) in vitro complex I activity relative to solvent control (3 µM, wild-type C. elegans mitochondria, single replicate): 108.394% and 103.450%
remaining activity at 3 µM (3 µM, wild-type C. elegans mitochondria, single replicate, read-out: percent (%) in vitro complex I activity relative to solvent control): 111%
remaining activity at 15 µM (15 µM, wild-type C. elegans mitochondria, mean of replicates, read-out: percent (%) in vitro complex I activity relative to solvent control): 103%
percent (%) in vitro complex I activity relative to solvent control (15 µM, wild-type C. elegans mitochondria, single replicate): 105.414% and 100.145%
remaining activity at 15 µM (15 µM, wild-type C. elegans mitochondria, single replicate, read-out: percent (%) in vitro complex I activity relative to solvent control): 104%
remaining activity at 37.5 µM (37.5 µM, wild-type C. elegans mitochondria, mean of replicates, read-out: percent (%) in vitro complex I activity relative to solvent control): 106%
percent (%) in vitro complex I activity relative to solvent control (37.5 µM, wild-type C. elegans mitochondria, single replicate): 108.185% and 102.298%
remaining activity at 37.5 µM (37.5 µM, wild-type C. elegans mitochondria, single replicate, read-out: percent (%) in vitro complex I activity relative to solvent control): 112%
remaining activity at 75 µM (75 µM, wild-type C. elegans mitochondria, mean of replicates, read-out: percent (%) in vitro complex I activity relative to solvent control): 99.7%
percent (%) in vitro complex I activity relative to solvent control (75 µM, wild-type C. elegans mitochondria, single replicate): 105.576% and 98.309%
remaining activity at 75 µM (75 µM, wild-type C. elegans mitochondria, single replicate, read-out: percent (%) in vitro complex I activity relative to solvent control): 98.1%
remaining activity at 0.0001 µM (dose 0.0001 µM, wild-type C. elegans, mean of replicates, read-out: in vitro complex I activity relative to solvent control, Mean): 92.7%
in vitro complex I activity relative to solvent control, individual replicate (dose 0.0001 µM, wild-type C. elegans, single replicate): 89.632% and 90.262%
remaining activity at 0.0001 µM (dose 0.0001 µM, wild-type C. elegans, single replicate, read-out: in vitro complex I activity relative to solvent control, individual replicate): 94.2%
remaining activity at 0.0005 µM (dose 0.0005 µM, wild-type C. elegans, mean of replicates, read-out: in vitro complex I activity relative to solvent control, Mean): 102%
in vitro complex I activity relative to solvent control, individual replicate (dose 0.0005 µM, wild-type C. elegans, single replicate): 109.063% and 93.803% and 100.567%
remaining activity at 0.0005 µM (dose 0.0005 µM, wild-type C. elegans, single replicate, read-out: in vitro complex I activity relative to solvent control, individual replicate): 104%
remaining activity at 0.001 µM (dose 0.001 µM, wild-type C. elegans, mean of replicates, read-out: in vitro complex I activity relative to solvent control, Mean): 107%
in vitro complex I activity relative to solvent control, individual replicate (dose 0.001 µM, wild-type C. elegans, single replicate): 112.362% and 106.090% and 103.456%
remaining activity at 0.001 µM (dose 0.001 µM, wild-type C. elegans, single replicate, read-out: in vitro complex I activity relative to solvent control, individual replicate): 107%
remaining activity at 0.0025 µM (dose 0.0025 µM, wild-type C. elegans, mean of replicates, read-out: in vitro complex I activity relative to solvent control, Mean): 106%
in vitro complex I activity relative to solvent control, individual replicate (dose 0.0025 µM, wild-type C. elegans, single replicate): 111.626% and 103.191% and 101.180%
remaining activity at 0.0025 µM (dose 0.0025 µM, wild-type C. elegans, single replicate, read-out: in vitro complex I activity relative to solvent control, individual replicate): 107%
remaining activity at 0.005 µM (dose 0.005 µM, wild-type C. elegans, mean of replicates, read-out: in vitro complex I activity relative to solvent control, Mean): 106%
in vitro complex I activity relative to solvent control, individual replicate (dose 0.005 µM, wild-type C. elegans, single replicate): 110.787% and 104.169% and 105.146%
remaining activity at 0.005 µM (dose 0.005 µM, wild-type C. elegans, single replicate, read-out: in vitro complex I activity relative to solvent control, individual replicate): 104%
remaining activity at 0.013 µM (dose 0.013 µM, wild-type C. elegans, mean of replicates, read-out: in vitro complex I activity relative to solvent control, Mean): 105%
in vitro complex I activity relative to solvent control, individual replicate (dose 0.013 µM, wild-type C. elegans, single replicate): 109.484% and 102.444% and 103.368%
remaining activity at 0.013 µM (dose 0.013 µM, wild-type C. elegans, single replicate, read-out: in vitro complex I activity relative to solvent control, individual replicate): 105%
remaining activity at 0.025 µM (dose 0.025 µM, wild-type C. elegans, mean of replicates, read-out: in vitro complex I activity relative to solvent control, Mean): 108%
in vitro complex I activity relative to solvent control, individual replicate (dose 0.025 µM, wild-type C. elegans, single replicate): 112.068% and 112.677% and 102.223%
remaining activity at 0.025 µM (dose 0.025 µM, wild-type C. elegans, single replicate, read-out: in vitro complex I activity relative to solvent control, individual replicate): 106%
remaining activity at 0.063 µM (dose 0.063 µM, wild-type C. elegans, mean of replicates, read-out: in vitro complex I activity relative to solvent control, Mean): 102%
in vitro complex I activity relative to solvent control, individual replicate (dose 0.063 µM, wild-type C. elegans, single replicate): 106.376% and 104.996% and 99.618%
remaining activity at 0.063 µM (dose 0.063 µM, wild-type C. elegans, single replicate, read-out: in vitro complex I activity relative to solvent control, individual replicate): 98%
remaining activity at 0.125 µM (dose 0.125 µM, wild-type C. elegans, mean of replicates, read-out: in vitro complex I activity relative to solvent control, Mean): 103%
in vitro complex I activity relative to solvent control, individual replicate (dose 0.125 µM, wild-type C. elegans, single replicate): 106.082% and 99.397%
remaining activity at 0.125 µM (dose 0.125 µM, wild-type C. elegans, single replicate, read-out: in vitro complex I activity relative to solvent control, individual replicate): 104%
remaining activity at 0.313 µM (dose 0.313 µM, wild-type C. elegans, mean of replicates, read-out: in vitro complex I activity relative to solvent control, Mean): 101%
in vitro complex I activity relative to solvent control, individual replicate (dose 0.313 µM, wild-type C. elegans, single replicate): 105.067% and 102.773%
remaining activity at 0.313 µM (dose 0.313 µM, wild-type C. elegans, single replicate, read-out: in vitro complex I activity relative to solvent control, individual replicate): 96.6%
remaining activity at 0.625 µM (dose 0.625 µM, wild-type C. elegans, mean of replicates, read-out: in vitro complex I activity relative to solvent control, Mean): 101%
in vitro complex I activity relative to solvent control, individual replicate (dose 0.625 µM, wild-type C. elegans, single replicate): 84.037% and 107.828% and 101.922% and 108.826%
remaining activity at 1.5 µM (dose 1.5 µM, wild-type C. elegans, mean of replicates, read-out: in vitro complex I activity relative to solvent control, Mean): 101%
in vitro complex I activity relative to solvent control, individual replicate (dose 1.5 µM, wild-type C. elegans, single replicate): 102.911% and 106.921% and 84.834% and 107.818%
remaining activity at 3 µM (dose 3 µM, wild-type C. elegans, mean of replicates, read-out: in vitro complex I activity relative to solvent control, Mean): 108%
in vitro complex I activity relative to solvent control, individual replicate (dose 3 µM, wild-type C. elegans, single replicate): 108.394% and 103.450%
remaining activity at 3 µM (dose 3 µM, wild-type C. elegans, single replicate, read-out: in vitro complex I activity relative to solvent control, individual replicate): 107%
remaining activity at 15 µM (dose 15 µM, wild-type C. elegans, mean of replicates, read-out: in vitro complex I activity relative to solvent control, Mean): 103%
in vitro complex I activity relative to solvent control, individual replicate (dose 15 µM, wild-type C. elegans, single replicate): 105.414% and 100.145%
remaining activity at 15 µM (dose 15 µM, wild-type C. elegans, single replicate, read-out: in vitro complex I activity relative to solvent control, individual replicate): 101%
remaining activity at 37.5 µM (dose 37.5 µM, wild-type C. elegans, mean of replicates, read-out: in vitro complex I activity relative to solvent control, Mean): 106%
in vitro complex I activity relative to solvent control, individual replicate (dose 37.5 µM, wild-type C. elegans, single replicate): 108.185% and 102.298%
remaining activity at 37.5 µM (dose 37.5 µM, wild-type C. elegans, single replicate, read-out: in vitro complex I activity relative to solvent control, individual replicate): 103%
remaining activity at 75 µM (dose 75 µM, wild-type C. elegans, mean of replicates, read-out: in vitro complex I activity relative to solvent control, Mean): 99.7%
in vitro complex I activity relative to solvent control, individual replicate (dose 75 µM, wild-type C. elegans, single replicate): 105.576% and 98.309%
remaining activity at 75 µM (dose 75 µM, wild-type C. elegans, single replicate, read-out: in vitro complex I activity relative to solvent control, individual replicate): 96.8%
